Starred links: 1 amine or outer side, 2 acyl side, 3 side chain; linkers in the order of their positions; H or OH if unused. Positions of bridges follow the written chain, without caps; N, C: chain ends. Non-standard residues stand in square brackets, D forms with d. Residues, ends and D or L forms follow the SMILES beside them. Chains are numbered I, II in the order given. Dmt = Cc1cc(O)cc(C)c1C[C@H](N)C(=O)O; X1 = O=C(CCN[*:2])[*:1]
Test: Plasma stability (T1/2) in the blood plasma, HPLC analysis
Type: in vitro ADME
Settings: time by which the compound was degraded by enzyme to the 50% of original amount
Protocol: The stability of CN2097 and Szeto CN2097 derivatives in blood was determined as follows.
The detection limit of CN2097 was measured by HPLC analysis. Various concentrations of CN2097 were prepared in PBS and injected in HPLC and monitored at 214 nm. The HPLC analysis of CN2097 using 50 microliter injection and detecting up to 500 micromolar. The lowest level of detection was at 2 micromolar, corresponding to 0.1 nmole or 237.68 ng (FIG. 13).
The T1/2 is the time by which the compound was degraded by enzyme to the 50% of original amount.

Compound | half-life [min]
CC(C)[C@H](NC(=O)[C@@H]1CCC(=O)NCCC(=O)NCCCC[C@H](NC(=O)[C@H](CCCCN)NC(=O)[C@H](Cc2ccc(O)cc2)NC(=O)[C@H](CC(N)=O)NC(=O)[C@H](CCCCN)NC(=O)[C@@H](N)CSSC[C@H](N)C(=O)N[C@@H](CCCNC(=N)N)C(=O)N[C@@H](CCCNC(=N)N)C(=O)N[C@@H](CCCNC(=N)N)C(=O)N[C@@H](CCCNC(=N)N)C(=O)N[C@@H](CCCNC(=N)N)C(=O)N[C@@H](CCCNC(=N)N)C(=O)N[C@@H](CCCNC(=N)N)C(N)=O)C(=O)N[C@@H]([C@@H](C)O)C(=O)N1)C(=O)O [CN2097] (I: H-CKNYKKTEV-OH / II: H-CRRRRRRR-NH2; disulfide I:1-II:1; linker I:6-I:8 via X1) | ~48.2
CC(C)[C@H](NC(=O)[C@@H]1CCC(=O)NCCC(=O)NCCCC[C@H](NC(=O)[C@H](CCCCN)NC(=O)[C@H](Cc2ccc(O)cc2)NC(=O)[C@H](CC(N)=O)NC(=O)[C@H](CCCCN)NC(=O)[C@@H](N)CS)C(=O)N[C@@H]([C@@H](C)O)C(=O)N1)C(=O)O [CN, Cys-Lys-Asn-Tyr-Lys-[Lys-Thr-Glu(β Ala)]-Val (NH2-CKNYK-[KTE(β-A)]V—OH)] (H-CKNYKKTEV-OH; linker 6-8 via X1) | ~28
Cc1cc(O)cc(C)c1C[C@H](N)C(=O)N[C@H](CCCNC(=N)N)C(=O)N[C@@H](Cc1ccccc1)C(=O)N[C@@H](CCCCN)C(=O)N[C@@H](CSSC[C@H](N)C(=O)N[C@@H](CCCCN)C(=O)N[C@@H](CC(N)=O)C(=O)N[C@@H](Cc1ccc(O)cc1)C(=O)N[C@@H](CCCCN)C(=O)N[C@H]1CCCCNC(=O)CCNC(=O)CC[C@@H](C(=O)N[C@H](C(=O)O)C(C)C)NC(=O)[C@H]([C@@H](C)O)NC1=O)C(N)=O [Sezto-CN] (I: H-CKNYKKTEV-OH / II: H-[Dmt][dR]FKC-NH2; disulfide I:1-II:5; linker I:6-I:8 via X1) | ~43.2

Source: patent US20150038671A1, “Efficient Synthesis of CN2097 and RC7 and Their Analogs” (priority 2013, published 2015)
